From US20210113560A1, “METHOD OF TREATING FIBROTIC DISEASE” (BLADE THERAPEUTICS, INC., priority 2018, published 2021)
Peptide text beside a SMILES is read from it. * marks the point of attachment. Cbz = O=C(OCc1ccccc1)*

Tests used:
CAPN2 = target: T1, CAPN2 (Homo sapiens, UniProt P17655); assay: Activity based probe (ABP) off-rate assay of CAPN2 inhibitors, SDS-PAGE readout; type: binding; details: t1/2=0.693/k from first order decay fit; complex diluted ten-fold into 10 uM ABP; time points 0-24 hours
T1 sequence (P17655 20-700 limits assumed): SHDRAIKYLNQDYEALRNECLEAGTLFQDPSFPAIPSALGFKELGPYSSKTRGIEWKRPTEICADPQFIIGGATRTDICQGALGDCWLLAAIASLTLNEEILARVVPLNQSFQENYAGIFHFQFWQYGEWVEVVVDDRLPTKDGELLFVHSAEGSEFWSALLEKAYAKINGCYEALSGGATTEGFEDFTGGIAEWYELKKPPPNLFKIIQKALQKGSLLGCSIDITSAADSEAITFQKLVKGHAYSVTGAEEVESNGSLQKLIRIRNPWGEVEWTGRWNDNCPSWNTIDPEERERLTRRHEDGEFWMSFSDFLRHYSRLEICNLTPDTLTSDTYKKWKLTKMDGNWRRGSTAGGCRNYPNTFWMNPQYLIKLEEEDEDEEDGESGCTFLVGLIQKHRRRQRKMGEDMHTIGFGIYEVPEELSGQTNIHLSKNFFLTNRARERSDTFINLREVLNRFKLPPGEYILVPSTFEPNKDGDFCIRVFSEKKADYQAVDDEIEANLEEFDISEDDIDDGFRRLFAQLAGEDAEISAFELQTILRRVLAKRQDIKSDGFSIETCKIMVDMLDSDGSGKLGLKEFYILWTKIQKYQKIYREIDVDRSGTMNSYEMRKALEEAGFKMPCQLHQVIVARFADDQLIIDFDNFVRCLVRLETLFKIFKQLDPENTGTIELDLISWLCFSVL
T1 sequence (P04632 1-268 partner): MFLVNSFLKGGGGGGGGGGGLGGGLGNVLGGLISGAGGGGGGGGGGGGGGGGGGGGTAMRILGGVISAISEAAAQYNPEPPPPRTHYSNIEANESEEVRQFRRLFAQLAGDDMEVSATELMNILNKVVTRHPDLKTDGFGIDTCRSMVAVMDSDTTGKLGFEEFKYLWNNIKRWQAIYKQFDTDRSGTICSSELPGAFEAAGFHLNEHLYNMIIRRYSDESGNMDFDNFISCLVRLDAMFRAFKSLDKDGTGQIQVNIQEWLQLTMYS
Text: FIG. 2: Dissociation of Compound 10 from calpain 2 (CAPN2). Complexes of Compound 10 with CAPN2 were generated, followed by dilution into an excess of Compound 29 (a probe for unbound CAPN2). Samples were taken at the time points (lanes 1-6 for 0, 1, 2, 4, 7 and 24 hr respectively) and analyzed by gel electrophoresis to determine the amount of Compound 29 probe incorporation. Lanes 7 and 8 reflect negative and positive controls for probe labeling, respectively. The dissociation rate and half-life for the Compound 10-CAPN2 complex was then calculated.
A fluorescently labeled irreversible activity based probe (ABP) was used to measure off rates of CAPN2 inhibitors as follows. The ABP molecule contains a fluoro-methyl ketone warhead that irreversibly reacts with the active site cysteine nucleophile of CAPN enzymes. ABP is also labeled with the Alexa 647 fluorophore which allows for sensitive quantitation of the CAPN2.ABP adduct.
The assay is typically performed by pre-incubating 2 uM CAPN2 with […] test inhibitor for 30 minutes in assay buffer (50 mM Tris-HCl, 100 mM NaCl, 2 mM CaCl2, 1 mM DTT, 0.02% Brij-35, pH7.4). This incubation mixture (containing the CAPN2.inhibitor complex) is diluted ten-fold into the same assay buffer containing 10 uM ABP. This is time zero at which an aliquot is immediately withdrawn and quenched by adding denaturing SDS-PAGE loading buffer and heating at 95° C. for 5 minutes. Additional aliquots are typically withdrawn and quenched at time points of 0.5, 1, 2, 4, 7, 24 hours. Quenched samples are stored frozen at −80° C. until SDS-PAGE analysis.
For a given test inhibitor, all time points are run on the same gel with the following two control samples. An assay minimum control is prepared by pre-incubating 2 uM CAPN2 in assay buffer for 1 hour. The incubation mixture is diluted, ten-fold into the same assay buffer containing 10 uM ABP, reacted for 30 minutes and quenched. After the initial 1 hour incubation, the CAPN2 enzyme is autolytically degraded and should generate little to no signal. An assay maximum control is prepared by adding 10 uM ABP to 0.2 uM CAPN2 in assay buffer and incubating for 30 minutes and quenching.
After SDS-PAGE, the gel is scanned using a LAS4000 ImageQuant platform to quantify the Alexa 647 intensity at ˜75 kDa (molecular weight of full length activated CAPN2). The minimum and maximum controls on each gel are used to calculate percentage of test compound bound at each time point. […] Using the equation t1/2=0.693/k, the off rate (k) is converted to and reported as CAPN2.inhibitor complex half-life (t1/2).

calpain 2 (CAPN2) = target: T2, calpain 2 (CAPN2) (Homo sapiens, UniProt P17655); assay: Dilution of enzyme-inhibitor complex into substrate, reactivation over time (FIG. 1); type: biochemical; details: relative to unbound CAPN2 control; absence of excess compound
T2 sequence (P17655 20-700 limits assumed): T1 sequence (P17655 20-700 limits assumed)
T2 sequence (P04632 1-268 partner): T1 sequence (P04632 1-268 partner)
Text: (§1) FIG. 1: Dissociation of Compound 10 from calpain 2 (CAPN2). Complexes of Compound 10 with either CatK or CAPN2 were generated, followed by dilution into substrate-containing assay wells to initiate data collection. Reactivation of the target enzymes due to dissociation of the enzyme-inhibitor complexes was observed as a function of time. […] CAPN2 control (upper dashed line). Thus, inhibition of CAPN2 by Compound 10 is retained even in the absence of excess Compound 10. Further, this effect is selective and provides a basis for specific action of Compound 10 against CAPN2.

CatK = target: T3, CatK (Homo sapiens, UniProt P43235); assay: as above; type: biochemical; details: compared to unbound CatK control
T3 sequence (P43235 115-329): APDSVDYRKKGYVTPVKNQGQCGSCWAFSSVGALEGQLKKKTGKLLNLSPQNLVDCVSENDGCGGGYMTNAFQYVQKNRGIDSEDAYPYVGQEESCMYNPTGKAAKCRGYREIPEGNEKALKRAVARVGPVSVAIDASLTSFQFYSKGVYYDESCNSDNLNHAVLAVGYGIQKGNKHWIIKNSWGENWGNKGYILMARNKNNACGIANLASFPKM
Text: as §1

| Structure (SMILES) | Half-life of Compound-CAPN2 Complex (CAPN2) | Retention of CAPN2 inhibition after dilution of the complex (calpain 2 (CAPN2)) | Reactivation of CatK after dilution of the CatK-compound complex (CatK) |
| --- | --- | --- | --- |
| CC[C@H](NC(=O)[C@H](CC(C)C)NC(=O)OCc1ccccc1)C(=O)C(=O)NCc1cc(OC)cc(OC)c1 [Compound 23] | 1 h |  |  |
| NC(=O)C(=O)C(Cc1ccccc1)NC(=O)c1nsnc1-c1ccccc1 (centres unmarked) [Compound 24] | 6.6 h |  |  |
| CCN(CC)Cc1ccc(/C=C/c2ccccc2C(=O)NC(Cc2ccccc2)C(=O)C(N)=O)cc1 (centres unmarked) [Compound 27] | 0.9 h |  |  |
| Cc1cc(C(=O)NC(Cc2ccccc2)C(=O)C(N)=O)n(-c2ccccn2)n1 (centres unmarked) [Compound 5] | 0.467 h |  |  |
| NC(=O)C(=O)C(Cc1ccccc1)NC(=O)c1nsnc1-c1ccccn1 (centres unmarked) [Compound 32] | 2.32 h |  |  |
| NC(=O)C(=O)C(Cc1ccccc1)NC(=O)c1cn(C(F)F)nc1-c1ccccc1 (centres unmarked) [Compound 17] | 2.1 h |  |  |
| Cn1cc(C(=O)N[C@@H](Cc2ccccc2)C(=O)C(N)=O)c(-c2ccccc2)n1 [Compound 26] | 0.483 h |  |  |
| NC(=O)C(=O)C(Cc1ccccc1)NC(=O)c1c(C(F)(F)F)ccc(Cl)c1F (centres unmarked) [Compound 8] | 2.4 h |  |  |
| O=C(NC1CC1)C(=O)C(Cc1ccccc1)NC(=O)[C@H]1CCC(=O)N1Cc1ccccc1 (some centres unmarked) [Compound 9] | 0.083 h |  |  |
| Cc1nc(-c2ccccc2F)c(C(=O)NC(Cc2ccccc2)C(=O)C(N)=O)o1 (centres unmarked) [Compound 10] | 2.7 h | inhibition is retained | almost an immediate reactivation |
| Cn1cc(C(=O)NC(Cc2ccccc2)C(=O)C(N)=O)c(-c2cccc3oc(=O)[nH]c23)n1 (centres unmarked) [Compound 38] | 0.65 h |  |  |
| NC(=O)C(=O)C(Cc1ccccc1)NC(=O)c1cn(C2CC2)nc1-c1ccccc1 (centres unmarked) [Compound 12] | 0.333 h |  |  |
| CC(C)C(NC(=O)OCc1ccccc1)C(=O)NC(Cc1ccccc1)C(=O)C(N)=O (centres unmarked) [Compound 30] | 17.77 h |  |  |
| CC(C)[C@@H](NC(=O)CCCNC(=O)CCCCCC1(C)C(/C=C/C=C/C=C2/N(CCCS(=O)(=O)O)c3ccccc3C2(C)C)=[N+](CCCS(=O)(=O)O)c2ccc(S(=O)(=O)O)cc21)C(=O)NC(Cc1ccccc1)C(=O)CF (some centres unmarked) [Compound 29] | 7 h |  |  |
| NC(=O)C(=O)C(Cc1ccccc1)NC(=O)c1nsnc1-c1cnccn1 (centres unmarked) [Compound 35] | 1.03 h |  |  |
| Cc1nc(-c2ccccc2)c(C(=O)NC(Cc2ccccc2)C(=O)C(N)=O)o1 (centres unmarked) [Compound 14] | 5.4 h |  |  |
| Cn1cc(C(=O)NC(Cc2ccccc2)C(=O)C(N)=O)c(-c2cccc(F)c2)n1 (centres unmarked) [Compound 13] | 0.633 h |  |  |
| Cc1cncc(-c2nn(C(F)F)cc2C(=O)NC(Cc2ccccc2)C(=O)C(N)=O)c1 (centres unmarked) [Compound 39] | 0.533 h |  |  |

| Structure (SMILES) | Half-life of Compound-CAPN2 Complex (CAPN2) | Retention of CAPN2 inhibition after dilution of the complex (calpain 2 (CAPN2)) | Reactivation of CatK after dilution of the CatK-compound complex (CatK) |
| --- | --- | --- | --- |
| Cc1nc(-c2cccc(F)c2)c(C(=O)NC(Cc2ccccc2)C(=O)C(N)=O)o1 (centres unmarked) [Compound 11] | 3.53 h |  |  |
| NC(=O)C(=O)[C@H](Cc1ccccc1)NC(=O)c1cnoc1-c1ccccc1 [Compound 25] | 1.6 h |  |  |
| O=C(O)C(=O)C(Cc1ccccc1)NC(=O)c1nsnc1-c1ccccc1 (centres unmarked) [Compound 33] | 1.87 h |  |  |
| Cc1c(F)cccc1-c1nsnc1C(=O)NC(Cc1ccccc1)C(=O)C(N)=O (centres unmarked) [Compound 36] | 0.75 h |  |  |
| NC(=O)C(=O)C(Cc1ccccc1)NC(=O)c1nsnc1-c1ccccc1F (centres unmarked) [Compound 18] | 5.5 h |  |  |
| NC(=O)C(=O)C(Cc1ccccc1)NC(=O)c1cn(C(F)F)nc1-c1cccc2cnccc12 (centres unmarked) [Compound 1] | 2.8 h |  |  |
| Cn1cc(C(=O)NC(Cc2ccccc2)C(=O)C(N)=O)c(-c2cccc3c2OC(F)(F)O3)n1 (centres unmarked) [Compound 41] | 0.45 h |  |  |
| Cn1cc(C(=O)NC(Cc2ccccc2)C(=O)C(N)=O)c(-c2cccc3cn[nH]c23)n1 (centres unmarked) [Compound 37] | 0.65 h |  |  |
| O=C(NC1CC1)C(=O)C(Cc1ccccc1)NC(=O)c1nsnc1-c1ccccc1 (centres unmarked) [Compound 6] | 0.383 h |  |  |
| Cc1cc(C(=O)N[C@@H](Cc2ccccc2)C(=O)C(N)=O)n(-c2ccccc2)n1 [Compound 21] | 2.7 h |  |  |
| O=CC(Cc1ccccc1)NC(=O)c1nsnc1-c1ccccc1 (centres unmarked) [Compound 7] | 1.05 h |  |  |
| NC(=O)C(=O)C(Cc1ccccc1)NC(=O)c1nsnc1-c1cccc(F)c1 (centres unmarked) [Compound 19] | 2.8 h |  |  |
| Cc1nc(-c2ccccc2F)c(C(=O)NC(Cc2ccccc2)C(=O)C(=O)O)o1 (centres unmarked) [Compound 40] | 0.467 h |  |  |
| NC(=O)C(=O)C(Cc1ccccc1)NC(=O)c1nsnc1-c1cccc2c1OC(F)(F)O2 (centres unmarked) [Compound 2] | 9.63 h |  |  |
| Cn1cc(C(=O)NC(Cc2ccccc2)C(=O)C(N)=O)c(-c2ccccc2F)n1 (centres unmarked) [Compound 16] | 0.867 h |  |  |
| NC(=O)C(=O)C(Cc1ccccc1)NC(=O)c1nsnc1-c1ccncn1 (centres unmarked) [Compound 34] | 1.27 h |  |  |
| CC(C)[C@H](NC(=O)OCc1ccccc1)C(=O)N[C@H](C=O)Cc1ccccc1 [Compound 28] (Cbz-Val-Phe-aldehyde) | 3 h |  |  |
| NC(=O)C(=O)C(Cc1ccccc1)NC(=O)c1nsnc1-c1cccc2c1OC(F)(F)O2 (centres unmarked) [Compound 31] | 4.87 h |  |  |
